Active and inactive are the calls of the source.
Key:
Assay type in all cases: protein-complex assay
[1] = molecular target: T1, Protein farnesyltransferase (Homo sapiens, UniProt P49354+P49356); experiment: In vitro inhibition of human recombinant Protein farnesyltransferase at 20 uM (Inactive)
[2] = molecular target: T1, Protein farnesyltransferase; experiment: In vitro inhibition of human recombinant Protein farnesyltransferase
[3] = molecular target: T1, Protein farnesyltransferase; experiment: In vitro inhibition of human recombinant Protein farnesyltransferase with respect to FPP

| Activity [1] | IC50 [2] [nM] | Ki [3] [nM] | SMILES |
| --- | --- | --- | --- |
| inactive | – | – | COC(=O)C/C(C(=O)OC)=C(/CCCCCCCCCCCCCCCCO)C(=O)OC |
| – | 10.6 | – | COC(=O)C/C(C(=O)OC)=C(/CCCCCCCCCCCCCCCCOS(=O)(=O)O)C(=O)OC |
| – | 3.3 | – | O=C(O)C/C(C(=O)O)=C(/CCCCCCCCCCCCCCCCO)C(=O)O |
| – | 14 | 4.5 | O=C(O)C/C(C(=O)O)=C(/CCCCCCCCCCCCCCCCOS(=O)(=O)O)C(=O)O |
